{
  "source": "patent US6696493B2",
  "about": "“Treating chronic uremic patients undergoing periodic dialysis” (Sigma-Tau Industrie Farmaceutiche Riunite S.p.A., priority 2000, dated 2004)",
  "key": {"[1]": {"system": "perfused heart", "test": "low-pressure or low-flow ischaemia model, perfused heart (Langendorff)", "from_the_text": "In this example, the low-pressure or low-flow ischaemia model was used, which is a model recognised as valid for cardiac ischaemia (Bolukoglu, H. et al. Am. J. Physiol. 1996: 270; H817-26).\nThe treatment schedule is illustrated in FIG. 1., in which the letters A-F denote the heart effluent sampling times for the measurement of metabolites. The hearts are removed from the animals and mounted on a Langerdorff appliance. The perfusion medium replacing the blood was a Krebs-Heinsleit standard bicarbonate buffer containing glucose 12 mM as energy source for cardiac metabolism.\nAfter 30 minute perfusion at a pressure of 100 cm of water, ischaemia was induced by reducing the perfusion pressure of the heart to 25 cm of water, thus reducing coronary flow from approximately 2 ml/min to approximately 0.3 ml/min. Reduction of the perfusion pressure gives rise to ischaemia, since the heart will pump the fluid in the low-perfusion area rather than via the coronary bloodstream, supplying the flow to the heart.\nThis control model was compared with hearts perfused with L-carnitine 10 mM or L-carnitine fumarate 10 mM.\nCardiac function was tested in three different ways.\nIn the first, the NRM ^31P signal was monitored in real time.\nThis signal provides the best indication of the energy status of the heart.\nIn the second, the haemodynamics of the heart was measured by means of a pressure transducer mounted to measure the perfusion pressure. The haemodynamic measurements include heart rate, relative dP/dt (measurement of the contraction force of the heart) and the cardiac contraction amplitude. Coronary flow was also measured as an indicator of the heart's ability to provide oxygen and energy for its own metabolism.\nIn the third type of test, the metabolites and the enzyme LDH released by the heart were analysed in the effluent. The release of LDH indicates damage to cardiac tissue. The release of metabolites by the heart was tested by means of mass spectrometry coupled with gas chromatography.\nThe procedures of example 1 were substantially repeated, with the addition of a treatment with carnitine alone as a further control."}, "[2]": {"system": "patients", "conditions": "oral supplementation, cited from earlier work"}, "[3]": {"system": "maintenance hemodialysis patients", "conditions": "i.v. 20 mg/kg after each dialysis session; cited from earlier work"}, "[4]": {"conditions": "cited from earlier work"}, "[5]": {"system": "hemodialysis patients", "conditions": "i.v. 20 mg/kg for six months, then 10 mg/kg, after each dialysis session; cited from earlier work"}, "[6]": {"conditions": "10 mM, post-ischemic, vs control hearts"}},
  "note": "Entries after “also recorded” stand apart in the source; their conditions may differ.",
  "data": [
    {"smiles": "C[N+](C)(C)C[C@H](O)CC(=O)[O-].O=C(O)/C=C/C(=O)O", "note": "[carnitine fumarate, L-carnitine fumarate]", "values": [
      {"measurement": "release of LDH in heart effluent", "setting": "[1]; 10 mM in perfusion medium, low-flow ischaemia, vs control hearts, fumarate", "result": "reduced release of LDH; also recorded: affords protection against ischemic damage"},
      {"measurement": "reserves of high-energy phosphate (creatine phosphate, 31P NMR)", "setting": "[1]; 10 mM, after 45 minutes of ischaemia, vs control hearts", "result": "greater in treated hearts"},
      {"measurement": "malate released by the heart (effluent)", "setting": "[1]; 10 mM, low-flow ischaemia, GC-MS of effluent", "result": "more malate"},
      {"measurement": "lactate released by the heart (effluent)", "setting": "[1]; 10 mM, low-flow ischaemia, GC-MS of effluent, fumarate", "result": "less lactate; also recorded: lactate reduction"},
      {"measurement": "coronary flow", "setting": "[1]; [6]", "result": "greater"},
      {"measurement": "post-ischemic cardiac contraction amplitude", "setting": "[1]; [6]", "result": "greater"},
      {"measurement": "succinate released by the heart (effluent)", "setting": "[1]; Example 2, FIG. 3B, compared to lactate", "result": "low amount of succinate as compared to lactate"}
    ]},
    {"smiles": "C[N+](C)(C)C[C@H](O)CC(=O)[O-]", "note": "[carnitine, L-carnitine]", "values": [
      {"measurement": "quality of life, early stage of treatment", "setting": "[2]; early stage of treatment", "result": "effective in improving the quality of life"},
      {"measurement": "quality of life, long term treatment", "setting": "[2]; long term treatment (six months)", "result": "not sustained"},
      {"measurement": "dialytic symptoms", "setting": "[3]", "result": "decrease"},
      {"measurement": "effect on serum lipid profile", "setting": "[3]", "result": "does not seem to have a great lipid-lowering potential"},
      {"measurement": "exercise capability, sense of well being", "setting": "[3]", "result": "improvement"},
      {"measurement": "bioavailability through the oral route", "setting": "[4]", "result": "subject to saturation mechanism"},
      {"measurement": "abnormal serum fatty acid profile", "setting": "[5]", "result": "partial correction"},
      {"measurement": "ATP peaks (alpha, beta, gamma phosphate, 31P NMR)", "setting": "[1]; Example 2, after 40 minutes of ischaemia, FIG. 2", "result": "lacking"}
    ]}
  ]
}
